Assay results from article PMC6421522, “Designing Dual Inhibitors of Anaplastic Lymphoma Kinase (ALK) and Bromodomain-4 (BRD4) by Tuning Kinase Selectivity” (Journal of Medicinal Chemistry, 2019).

Key:
Test in all cases: KINOMEscan scanEDGE
Assay type in all cases: binding
Settings in all cases: read-out: % Control (1µM)
[1] = molecular target: T1, ULK2 (Homo sapiens, UniProt Q8IYT8)
T1 construct: purchased DiscoveRx (DiscoverX)
Method: (§1) Compound X was assayed at 1 μM in the DiscoveRx KINOMEscan (scanEDGE) assay platform. The results for single-concentration binding interactions are reported as “%Ctrl” (DMSO = 100%Ctrl), where lower numbers indicate stronger hits.

[2] = molecular target: T2, TGFBR1 (Homo sapiens, UniProt P36897)
T2 construct: purchased DiscoveRx KINOMEscan (scanEDGE); Thermo Fisher SelectScreen (Z'-LYTE) for PLK-1
Method: as §1

[3] = molecular target: T3, MET (Homo sapiens, UniProt P08581)
T3 construct: purchased DiscoveRx KINOMEscan (scanEDGE); Thermo Fisher SelectScreen (Z'-LYTE) for PLK-1
Method: as §1

[4] = molecular target: T4, FAK (Homo sapiens, UniProt Q05397)
T4 construct: purchased DiscoveRx KINOMEscan (scanEDGE); Thermo Fisher SelectScreen (Z'-LYTE) for PLK-1
Method: as §1

T1 sequence (Q8IYT8 whole entry): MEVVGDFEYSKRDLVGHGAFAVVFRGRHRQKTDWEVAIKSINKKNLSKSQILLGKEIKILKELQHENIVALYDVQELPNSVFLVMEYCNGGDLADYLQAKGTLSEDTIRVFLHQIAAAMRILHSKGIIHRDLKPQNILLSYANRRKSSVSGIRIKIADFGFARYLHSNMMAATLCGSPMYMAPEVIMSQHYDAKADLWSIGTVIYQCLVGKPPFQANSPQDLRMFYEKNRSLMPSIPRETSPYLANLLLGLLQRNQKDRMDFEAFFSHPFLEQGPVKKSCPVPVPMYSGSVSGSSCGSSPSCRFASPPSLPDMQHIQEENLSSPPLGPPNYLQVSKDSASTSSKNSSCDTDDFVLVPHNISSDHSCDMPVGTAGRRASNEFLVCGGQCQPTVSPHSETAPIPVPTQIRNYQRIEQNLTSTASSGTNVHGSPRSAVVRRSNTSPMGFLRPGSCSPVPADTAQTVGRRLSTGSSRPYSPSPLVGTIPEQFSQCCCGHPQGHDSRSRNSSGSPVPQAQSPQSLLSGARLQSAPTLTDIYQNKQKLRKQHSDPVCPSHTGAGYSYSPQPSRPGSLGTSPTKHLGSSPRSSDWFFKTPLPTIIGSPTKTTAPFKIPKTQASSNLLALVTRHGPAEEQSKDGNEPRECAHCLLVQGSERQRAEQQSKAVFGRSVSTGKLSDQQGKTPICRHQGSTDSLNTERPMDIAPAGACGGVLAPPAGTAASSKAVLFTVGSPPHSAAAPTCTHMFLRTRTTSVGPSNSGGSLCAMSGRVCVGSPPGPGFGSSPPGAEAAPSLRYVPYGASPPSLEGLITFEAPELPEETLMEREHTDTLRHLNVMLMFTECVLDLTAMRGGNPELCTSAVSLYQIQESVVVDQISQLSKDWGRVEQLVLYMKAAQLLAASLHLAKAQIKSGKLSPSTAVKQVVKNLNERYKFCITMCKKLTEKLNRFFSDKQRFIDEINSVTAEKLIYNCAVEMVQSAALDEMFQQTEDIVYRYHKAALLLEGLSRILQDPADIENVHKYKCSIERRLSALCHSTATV
T3 sequence (P08581 25-1390): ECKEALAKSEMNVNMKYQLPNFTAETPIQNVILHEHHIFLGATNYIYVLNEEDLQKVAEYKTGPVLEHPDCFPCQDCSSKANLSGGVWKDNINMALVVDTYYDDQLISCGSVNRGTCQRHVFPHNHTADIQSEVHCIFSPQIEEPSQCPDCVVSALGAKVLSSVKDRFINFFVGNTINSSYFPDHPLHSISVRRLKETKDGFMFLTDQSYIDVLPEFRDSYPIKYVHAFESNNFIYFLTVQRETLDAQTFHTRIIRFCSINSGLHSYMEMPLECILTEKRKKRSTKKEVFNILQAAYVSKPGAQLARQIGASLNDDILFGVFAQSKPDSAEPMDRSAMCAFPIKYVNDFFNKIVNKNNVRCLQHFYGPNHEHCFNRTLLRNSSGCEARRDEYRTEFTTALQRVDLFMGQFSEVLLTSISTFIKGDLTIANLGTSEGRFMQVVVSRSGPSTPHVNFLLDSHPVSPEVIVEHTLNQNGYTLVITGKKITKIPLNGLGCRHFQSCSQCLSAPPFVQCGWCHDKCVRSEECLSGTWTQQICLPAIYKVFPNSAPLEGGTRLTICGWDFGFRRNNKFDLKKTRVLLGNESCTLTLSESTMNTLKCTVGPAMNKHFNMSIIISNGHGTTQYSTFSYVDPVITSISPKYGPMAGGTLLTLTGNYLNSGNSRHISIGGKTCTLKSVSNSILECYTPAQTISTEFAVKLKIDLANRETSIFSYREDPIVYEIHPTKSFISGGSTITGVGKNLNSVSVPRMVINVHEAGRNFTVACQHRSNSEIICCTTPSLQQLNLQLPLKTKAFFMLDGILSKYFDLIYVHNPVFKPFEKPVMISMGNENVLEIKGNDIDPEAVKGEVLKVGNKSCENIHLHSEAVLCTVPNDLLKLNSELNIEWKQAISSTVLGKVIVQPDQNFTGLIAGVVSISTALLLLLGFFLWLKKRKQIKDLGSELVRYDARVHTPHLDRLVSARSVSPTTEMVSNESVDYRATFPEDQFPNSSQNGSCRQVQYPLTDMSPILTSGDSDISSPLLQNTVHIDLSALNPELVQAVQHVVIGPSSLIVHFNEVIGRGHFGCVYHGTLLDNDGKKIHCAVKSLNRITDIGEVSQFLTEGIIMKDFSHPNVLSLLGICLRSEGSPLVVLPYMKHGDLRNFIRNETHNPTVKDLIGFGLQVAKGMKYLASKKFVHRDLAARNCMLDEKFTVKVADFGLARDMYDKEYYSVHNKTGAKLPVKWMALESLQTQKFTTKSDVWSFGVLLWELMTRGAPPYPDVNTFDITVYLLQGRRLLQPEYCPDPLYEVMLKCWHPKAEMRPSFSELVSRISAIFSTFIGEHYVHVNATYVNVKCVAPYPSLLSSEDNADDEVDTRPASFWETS
T2 sequence (P36897 34-503): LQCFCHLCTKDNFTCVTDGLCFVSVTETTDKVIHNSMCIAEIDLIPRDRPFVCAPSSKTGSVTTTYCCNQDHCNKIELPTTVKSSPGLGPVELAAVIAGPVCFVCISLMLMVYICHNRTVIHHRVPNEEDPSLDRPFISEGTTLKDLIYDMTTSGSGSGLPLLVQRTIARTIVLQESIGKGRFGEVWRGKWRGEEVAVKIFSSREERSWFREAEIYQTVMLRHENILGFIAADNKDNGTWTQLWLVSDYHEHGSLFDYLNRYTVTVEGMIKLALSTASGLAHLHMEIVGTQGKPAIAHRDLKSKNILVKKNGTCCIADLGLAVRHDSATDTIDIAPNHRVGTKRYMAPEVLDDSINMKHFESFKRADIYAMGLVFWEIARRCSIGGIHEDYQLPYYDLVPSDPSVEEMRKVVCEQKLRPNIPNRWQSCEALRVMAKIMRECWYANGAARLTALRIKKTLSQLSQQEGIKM
T4 sequence (Q05397 whole entry): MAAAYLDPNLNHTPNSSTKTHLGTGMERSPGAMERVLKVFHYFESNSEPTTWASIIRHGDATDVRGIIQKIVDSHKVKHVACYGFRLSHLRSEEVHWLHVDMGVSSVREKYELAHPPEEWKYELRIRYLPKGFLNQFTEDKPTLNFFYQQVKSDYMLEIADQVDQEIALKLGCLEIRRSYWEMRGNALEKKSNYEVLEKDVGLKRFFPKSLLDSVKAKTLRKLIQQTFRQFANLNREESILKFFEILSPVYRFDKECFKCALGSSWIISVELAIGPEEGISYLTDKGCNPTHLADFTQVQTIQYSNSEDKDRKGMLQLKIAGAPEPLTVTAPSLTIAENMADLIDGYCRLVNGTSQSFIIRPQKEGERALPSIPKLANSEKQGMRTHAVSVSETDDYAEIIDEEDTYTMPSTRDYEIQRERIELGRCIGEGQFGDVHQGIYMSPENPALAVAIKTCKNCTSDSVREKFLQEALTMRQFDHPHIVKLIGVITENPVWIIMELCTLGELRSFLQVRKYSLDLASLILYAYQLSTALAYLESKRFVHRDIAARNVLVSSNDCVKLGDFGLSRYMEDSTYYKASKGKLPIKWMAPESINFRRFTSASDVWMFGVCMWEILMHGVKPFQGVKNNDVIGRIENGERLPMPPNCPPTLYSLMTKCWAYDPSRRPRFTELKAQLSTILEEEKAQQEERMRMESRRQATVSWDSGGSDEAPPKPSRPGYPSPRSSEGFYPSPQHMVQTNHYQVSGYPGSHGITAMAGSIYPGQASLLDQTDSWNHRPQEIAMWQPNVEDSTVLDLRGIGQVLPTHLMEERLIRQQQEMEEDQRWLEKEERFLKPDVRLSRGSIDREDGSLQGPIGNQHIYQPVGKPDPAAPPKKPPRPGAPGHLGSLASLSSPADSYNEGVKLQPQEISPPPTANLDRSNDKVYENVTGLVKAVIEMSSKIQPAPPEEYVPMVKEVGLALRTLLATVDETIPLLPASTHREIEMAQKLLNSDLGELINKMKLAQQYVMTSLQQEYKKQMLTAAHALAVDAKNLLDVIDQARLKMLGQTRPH

`CCOc1cc(C2CCN(C)CC2)ccc1Nc1ncc2c(n1)N(Cc1cc(C)cs1)[C@H](CC)C(=O)N2C` [16k, (R)-2-((2-Ethoxy-4-(1-methylpiperidin-4-yl)phenyl)amino)-7-ethyl-5-methyl-8-((4-methylthiophen-2-yl)methyl)-7,8-dihydropteridin-6(5H)-one] was tested, and the remaining binding at 1 µM [1] was 64%, the remaining binding at 1 µM [2] was 94% and the remaining binding at 1 µM [3] was 94%. The remaining binding at 1 µM [4] was 60%.
